Assay results: US20250122174A1 (Shenzhen Yuanli Shenwan Innovative Medicine Co., Ltd., priority 2022, published 2025)

These molecules were tested against HPK1 (Homo sapiens (Human), UniProt Q92918) (assay: HPK1 Inhibition Assay (ADP-Glo kinase assay)). Conditions: ATP 10 μM.
Format: biochemical
Method in brief: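 ADP-Glo luminescence read-out after 1 h room-temperature kinase reaction with 10 μM ATP and 0.1 μg/ml MBP. Recombinant human HPK1 at 7.5 ng/μl; buffer 40 mM Tris pH 7.5, 20 mM MgCl2. Compounds serially diluted 5-fold over 10 points from 10 mM DMSO stock.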

Chain of HPK1 (Q92918 1-346 limits assumed): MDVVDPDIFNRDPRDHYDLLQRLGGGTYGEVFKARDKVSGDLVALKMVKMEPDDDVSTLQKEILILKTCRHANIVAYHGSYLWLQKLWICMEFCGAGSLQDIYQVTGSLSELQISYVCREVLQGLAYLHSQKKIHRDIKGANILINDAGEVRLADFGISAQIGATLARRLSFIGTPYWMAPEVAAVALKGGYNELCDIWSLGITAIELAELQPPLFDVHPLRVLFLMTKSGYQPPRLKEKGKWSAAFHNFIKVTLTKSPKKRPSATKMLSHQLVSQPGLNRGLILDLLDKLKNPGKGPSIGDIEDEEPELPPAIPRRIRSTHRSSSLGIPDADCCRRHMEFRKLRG

Row | SMILES | IC50 [nM]
1 | C[C@@H]1CN(c2c(NC(=O)c3ccc(=O)n(-c4c(F)cccc4F)n3)cc(F)c3c2cnn3C)C[C@@H]1N [Example 170, N-(4-((3R,4R)-3-amino-4-methylpyrrolidin-1-yl)-7-fluoro-1-methyl-1H-indazol-5-yl)-1-(2,6-difluorophenyl)-6-oxo-1,6-dihydropyridazine-3-carboxamide] | < 100
2 | N[C@@H]1CCN(c2c(NC(=O)c3ccc(=O)n(-c4c(F)cccc4F)n3)ccc3c2cnn3CC(F)(F)F)C1 [Example 290, (R)-N-(4-(3-aminopyrrolidin-1-yl)-1-(2,2,2-trifluoroethyl)-1H-indazol-5-yl)-1-(2,6-difluorophenyl)-6-oxo-1,6-dihydropyridazine-3-carboxamide] | < 100
3 | Cc1nn(C(C)C)c2c(F)cc(NC(=O)c3ccc(=O)n(-c4c(F)cccc4F)n3)c(N3C[C@@H](C)[C@@H](N)C3)c12 [Example 218, N-(4-((3R,4R)-3-amino-4-methylpyrrolidin-1-yl)-7-fluoro-1-isopropyl-3-methyl-1H-indazol-5-yl)-1-(2,6-difluorophenyl)-6-oxo-1,6-dihydropyridazine-3-carboxamide] | < 100
4 | Cn1c(C(F)F)nc2c(N3CC[C@H](N)C3)c(NC(=O)c3ccc(=O)n(-c4c(F)cccc4F)n3)ccc21 [Example 161, (S)-N-(4-(3-aminopyrrolidin-1-yl)-2-(difluoromethyl)-1-methyl-1H-benzo[d]imidazol-5-yl)-1-(2,6-difluorophenyl)-6-oxo-1,6-dihydropyridazine-3-carboxamide] | < 100
5 | CC(C)n1ncc2c(N3CC[C@@H](NCCO)C3)c(NC(=O)c3ccc(=O)n(-c4c(F)cccc4F)n3)ccc21 [Example 213, (R)-1-(2,6-difluorophenyl)-N-(4-(3-((2-hydroxyethyl)amino)pyrrolidin-1-yl)-1-isopropyl-1H-indazol-5-yl)-6-oxo-1,6-dihydropyridazine-3-carboxamide] | < 100
6 | Cn1ncc2c(N3CC[C@@H](N)C3)c(NC(=O)c3ccc(=O)n(-c4c(F)cccc4F)n3)ccc21 [Example 167, (R)-N-(4-(3-aminopyrrolidin-1-yl)-1-methyl-1H-indazol-5-yl)-1-(2,6-difluorophenyl)-6-oxo-1,6-dihydropyridazine-3-carboxamide] | < 100
7 | CC[C@@H](C)n1ncc2c(N3C[C@@H](C)[C@@H](N)C3)c(NC(=O)c3ccc(=O)n(-c4c(F)cccc4F)n3)ccc21 [Example 257, N-(4-((3R,4R)-3-amino-4-methylpyrrolidin-1-yl)-1-((R)-sec-butyl)-1H-indazol-5-yl)-1-(2,6-difluorophenyl)-6-oxo-1,6-dihydropyridazine-3-carboxamide] | < 100
8 | C[C@@H]1CN(c2c(NC(=O)c3ccc(=O)n(-c4c(F)cccc4F)n3)ccc3nn(C45CCC(CC4)C5)cc23)C[C@@H]1N [Example 306, N-(4-((3R,4R)-3-amino-4-methylpyrrolidin-1-yl)-2-(bicyclo[2.2.1]heptan-1-yl)-2H-indazol-5-yl)-1-(2,6-difluorophenyl)-6-oxo-1,6-dihydropyridazine-3-carboxamide] | < 100
9 | N#Cc1ccncc1-c1ccc(NC(=O)c2ccc(=O)n(-c3c(F)cccc3Cl)n2)c(N2C[C@@H](N)C[C@H]2CO)c1 [Example 361, N-(2-((2S,4S)-4-amino-2-(hydroxymethyl)pyrrolidin-1-yl)-4-(4-cyanopyridin-3-yl)phenyl)-1-(2-chloro-6-fluorophenyl)-6-oxo-1,6-dihydropyridazine-3-carboxamide] | < 100
10 | Cc1nc2c(N3CC[C@@](C)(N)C3)c(NC(=O)c3ccc(=O)n(-c4c(F)cccc4F)n3)ccc2n1C [Example 90, (R)-N-(4-(3-amino-3-methylpyrrolidin-1-yl)-1,2-dimethyl-1H-benzo[d]imidazol-5-yl)-1-(2,6-difluorophenyl)-6-oxo-1,6-dihydropyridazine-3-carboxamide] | < 100
